Measurements published in patent US10221171B2, “Oxathiazole thiazolium Hsp 70 inhibitors” (THE REGENTS OF THE UNIVERSITY OF CALIFORNIA, priority 2015, dated 2019).
Like-named read-outs stand apart in the source and are kept apart here.

Tests used:
Format in all cases: cell-based
[1] = test system: MCF-7; test: MTT cell viability assay, MCF-7; conditions: Homo sapiens, read-out: IC50/μM MCF-7
[2] = test system: MEF (C57BL/6); test: MTT cell viability assay, MEF (C57BL/6); conditions: Mus musculus
[3] = test system: MDA-MB-231; test: MTT cell viability assay, MDA-MB-231; conditions: Homo sapiens
[4] = MTT, 72-hour incubation, read-out: IC50/μM MEF (C57BL/6)
[5] = MCF7, 72 h, MTT, 72-hour incubation
[6] = 72 h, read-out: IC50/μM MEF (C57BL/6), MTT, 72-hour incubation
[7] = MDA-MB-231, 72 h, 72-hour incubation

SMILES	IC50 ([1]; MCF7, MTT, 72-hour incubation) [µM]	IC50 [2, 4] [µM]	IC50 ([3]; MDA-MB-231, 72-hour incubation) [µM]	IC50 [1, 5] [µM]	IC50 [2, 6] [µM]	IC50 [3, 7] [µM]	IC50 ([1]; MCF7, 72 h) [µM]
CCn1c(=O)/c(=C2\Sc3cc(C(C)C)ccc3N2C)s/c1=C\c1scc[n+]1Cc1ccccc1C [JG-324]	0.17 ± 0.02	1.9 ± 0.1	0.15 ± 0.02	–	–	–	–
CCn1c(=O)/c(=C2\Sc3cc(Cl)ccc3N2C)s/c1=C\c1scc[n+]1Cc1occc1C(=O)OC [JG-265]	–	–	–	0.81 ± 0.09	2.7 ± 0.1	0.13 ± 0.01	–
CCn1c(=O)/c(=C2\Sc3cc(C)ccc3N2C)s/c1=C\c1scc[n+]1CCc1cccc(C(F)(F)F)c1 [JG-384]	0.62 ± 0.08	1.1 ± 0.1	0.68 ± 0.1	–	–	–	–
CCn1c(=O)/c(=C2\Sc3cc(OC)ccc3N2C)s/c1=C\c1scc[n+]1Cc1ccccc1OC [JG-352]	–	–	–	0.076 ± 0.005	0.77 ± 0.03	0.062 ± 0.006	–
CCn1c(=O)/c(=C2\Sc3cc(C)ccc3N2C)s/c1=C\c1scc[n+]1Cc1c(Cl)cccc1Cl [JG-371]	0.069 ± 0.004	0.68 ± 0.02	0.07 ± 0.01	–	–	–	–
CCn1c(=O)/c(=C2\Sc3cc(SC)ccc3N2C)s/c1=C\c1scc[n+]1Cc1ccccc1 [JG-249]	–	–	–	0.13 ± 0.01	1.7 ± 0.1	0.12 ± 0.01	–
C=CCn1c(=O)/c(=C2\Sc3ccccc3N2C)s/c1=C\c1scc[n+]1Cc1ccccc1 [JG-276]	0.24 ± 0.02	2.5 ± 0.1	0.27 ± 0.03	–	–	–	–
C=CCn1c(=O)/c(=C2\Sc3cc(Cl)ccc3N2C)s/c1=C\c1scc[n+]1Cc1ccccc1 [JG-280]	–	–	0.1 ± 0.01	0.17 ± 0.02	2.4 ± 0.1	–	–
CCn1c(=O)/c(=C2\Sc3cc(OC)ccc3N2C)s/c1=C\c1scc[n+]1Cc1ccccc1OC(F)(F)F [JG-303]	–	0.7 ± 0.01	–	–	–	0.053 ± 0.005	0.07 ± 0.003
CCn1c(=O)/c(=C2\Sc3cc(F)ccc3N2C)s/c1=C\c1scc[n+]1Cc1ccccc1OC [JG-264]	0.49 ± 0.04	1.4 ± 0.1	0.24 ± 0.03	–	–	–	–
CCn1c(=O)/c(=C2\Sc3cc(OC)ccc3N2C)s/c1=C\c1scc[n+]1CCc1ccccc1Cl [JG-379]	0.18 ± 0.01	0.9 ± 0.01	0.2 ± 0.03	–	–	–	–
CCn1c(=O)/c(=C2\Sc3cc(F)ccc3N2C)s/c1=C\c1scc[n+]1Cc1c(C)cccc1C [JG-334]	0.32 ± 0.03	1.4 ± 0.1	0.38 ± 0.04	–	–	–	–
CCn1c(=O)/c(=C2\Sc3cc(Cl)ccc3N2C)s/c1=C\c1scc[n+]1[C@@H](C)c1ccccc1 [JG-335]	0.14 ± 0.02	1.4 ± 0.1	0.11 ± 0.01	–	–	–	–
CCn1c(=O)/c(=C2\Sc3cc(Cl)ccc3N2C)s/c1=C\c1scc[n+]1Cc1ccccc1C(=O)OC [JG-331]	–	–	–	0.17 ± 0.02	2.9 ± 0.1	0.17 ± 0.02	–
CCn1c(=O)/c(=C2\Sc3cc(C)ccc3N2C)s/c1=C\c1scc[n+]1Cc1ccccc1Cl [JG-283]	0.063 ± 0.007	0.45 ± 0.02	0.088 ± 0.005	–	–	–	–
CCn1c(=O)/c(=C2\SCCN2C)s/c1=C\c1ccccn1 [JG-273]	> 5	> 10	> 20	–	–	–	–
CCn1c(=O)/c(=C2\Sc3cc(SC)ccc3N2C)s/c1=C\c1scc[n+]1Cc1c(C)cccc1C [JG-355]	0.28 ± 0.02	1.5 ± 0.1	0.21 ± 0.01	–	–	–	–
CCn1c(=O)/c(=C2\Sc3cc(F)ccc3N2C)s/c1=C\c1scc[n+]1Cc1ccccc1C(=O)OC [JG-332]	0.22 ± 0.03	2 ± 0.1	0.26 ± 0.03	–	–	–	–
CCn1c(=O)/c(=C2\Sc3ccc(OC)cc3N2C)s/c1=C\c1scc[n+]1Cc1ccccc1SC(F)(F)F [JG-399]	0.2 ± 0.01	3.1 ± 0.2	0.11 ± 0.01	–	–	–	–
CCn1c(=O)/c(=C2\Sc3cc(OC)ccc3N2C)s/c1=C\c1scc[n+]1Cc1ccccc1C(F)(F)F [JG-304]	0.12 ± 0.01	1.4 ± 0.06	0.1 ± 0.02	–	–	–	–
CCn1c(=O)/c(=C2\Sc3cc(OC)ccc3N2C)s/c1=C\c1scc[n+]1Cc1cc(C)sc1C [JG-353]	0.15 ± 0.01	1.1 ± 0.1	0.15 ± 0.01	–	–	–	–
CCn1c(=O)/c(=C2\Sc3cc(Cl)ccc3N2C)s/c1=C\c1scc[n+]1Cc1ccccc1CO [JG-329]	0.58 ± 0.1	7.3 ± 2.1	0.39 ± 0.06	–	–	–	–
CCc1ccc2c(c1)S/C(=c1/s/c(=C\c3scc[n+]3Cc3ccccc3SC(F)(F)F)n(CC)c1=O)N2C [JG-344]	0.087 ± 0.007	0.46 ± 0.03	0.17 ± 0.01	–	–	–	–
CCc1ccc2c(c1)S/C(=c1/s/c(=C\c3scc[n+]3Cc3ccsc3C(=O)OC)n(CC)c1=O)N2C [JG-299]	0.083 ± 0.007	0.92 ± 0.04	0.071 ± 0.009	–	–	–	–
CCn1c(=O)/c(=C2\Sc3cc(OC)ccc3N2C)s/c1=C\c1scc[n+]1Cc1c(Cl)cccc1Cl [JG-348]	0.1 ± 0.01	1.1 ± 0.1	0.1 ± 0.01	–	–	–	–
CCn1c(=O)/c(=C2\Sc3cc(Cl)ccc3N2C)s/c1=C\c1scc[n+]1Cc1c(C)noc1C [JG-267]	> 5	–	10 ± 2	–	7.6 ± 0.3	–	–
CN1/C(=c2\s/c(=C\c3scc[n+]3Cc3ccccc3)n(C)c2=O)Sc2cc(Cl)ccc21 [JG-281]	0.6 ± 0.06	5.7 ± 0.3	0.16 ± 0.02	–	–	–	–
